From US20120029187A1, “HALOALKYLSULFONANILIDE DERIVATIVE” (Nissan Chemical Industries, Ltd., priority 2009, published 2012)

How the values were obtained:
Assay type in all cases: in vivo
[1] = test system: redroot pigweed; assay: Test Example 4: herbicidal effect in foliage treatment; settings: three weeks after application
Procedure, shortened: (§1)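 Visual herbicidal scores on a graded scale were recorded three weeks after foliar application. Compounds went on as diluted emulsifiable concentrates at predetermined g/a to plants grown 14 days in a 25 to 30° C greenhouse.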

[2] = test system: posumbu knotweed; assay: as above; settings: three weeks after application
Procedure, shortened: as §1

[3] = test system: common lambsquater; assay: as above; settings: three weeks after application
Procedure, shortened: as §1

[4] = test system: barnyardgrass; assay: as above; settings: three weeks after application
Procedure, shortened: as §1

[5] = test system: Italian ryegrass; assay: as above; settings: three weeks after application
Procedure, shortened: as §1

[6] = test system: common ragweed; assay: as above; settings: three weeks after application
Procedure, shortened: as §1

[7] = test system: large crabgrass; assay: as above; settings: three weeks after application
Procedure, shortened: as §1

[8] = test system: water foxtail; assay: as above; settings: three weeks after application
Procedure, shortened: as §1

[9] = test system: common chickweed; assay: as above; settings: three weeks after application
Procedure, shortened: as §1

[10] = test system: velvetleaf; assay: as above; settings: three weeks after application
Procedure, shortened: as §1

[11] = test system: beadstraw; assay: as above; settings: three weeks after application
Procedure, shortened: as §1

[12] = test system: giant foxtail; assay: as above; settings: three weeks after application
Procedure, shortened: as §1

[13] = test system: wild oat; assay: as above; settings: three weeks after application
Procedure, shortened: as §1

[14] = test system: transplanted rice; assay: Test Example 1: preemergence treatment under submerged conditions, effect on crop; settings: dose 2.52 g/a
Procedure, shortened: (§2)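 Scoring 0 (<5% mortality) to 5 (≥90%) was done three weeks after preemergence application to the water surface of submerged (4 cm) alluvial soil, doses given as g per are. Weeds were seeded and 2.5-leaf rice transplanted on the treatment day; greenhouse at 25–30 °C.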

[15] = test system: barnyardgrass; assay: Test Example 1: herbicidal effects in preemergence treatment under submerged conditions; settings: dose 2.52 g/a
Procedure, shortened: as §2

[16] = test system: bulrush; assay: as above; settings: dose 2.52 g/a
Procedure, shortened: as §2

[17] = test system: ducksalad; assay: as above; settings: dose 2.52 g/a
Procedure, shortened: as §2

[18] = test system: bulrush; assay: Test Example 2: herbicidal effects during the vegetation period under submerged conditions; settings: treatment during the vegetation period under submerged conditions; dose 2.52 g/a
Procedure, shortened: (§3)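 Barnyardgrass, bulrush and ducksalad were co-sown in alluvial soil flooded to 4 cm and grown in a greenhouse at 25 to 30° C. At the 1- or 2-leaf stage, water-diluted emulsifiable concentrates went onto the water surface at set doses (g/a). Herbicidal effect was scored three weeks later on a graded scale.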

[19] = test system: ducksalad; assay: as above; settings: treatment during the vegetation period under submerged conditions; dose 2.52 g/a
Procedure, shortened: as §3

[20] = test system: redroot pigweed; assay: Test Example 3: herbicidal effects in soil treatment
Procedure, shortened: (§4)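 Seeds were sown in sterilized diluvial soil and covered with about 1.5 cm of soil. Compounds, formulated as emulsifiable concentrates and diluted with water, were sprayed evenly over the soil surface at set doses in g/a. Herbicidal effect was scored on a rating scale three weeks later.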

[21] = test system: posumbu knotweed; assay: as above
Procedure, shortened: as §4

[22] = test system: common lambsquater; assay: as above
Procedure, shortened: as §4

[23] = test system: barnyardgrass; assay: as above
Procedure, shortened: as §4

[24] = test system: Italian ryegrass; assay: as above
Procedure, shortened: as §4

[25] = test system: common ragweed; assay: as above
Procedure, shortened: as §4

[26] = test system: large crabgrass; assay: as above
Procedure, shortened: as §4

[27] = test system: water foxtail; assay: as above
Procedure, shortened: as §4

[28] = test system: common chickweed; assay: as above; settings: dose 6.3 g/a
Procedure, shortened: as §4

[29] = test system: velvetleaf; assay: as above
Procedure, shortened: as §4

[30] = test system: beadstraw; assay: as above
Procedure, shortened: as §4

[31] = test system: giant foxtail; assay: as above
Procedure, shortened: as §4

[32] = test system: wild oat; assay: as above
Procedure, shortened: as §4

[33] = test system: barnyardgrass; assay: Test Example 2: herbicidal effects during the vegetation period under submerged conditions; settings: treatment during the vegetation period under submerged conditions; dose 2.52 g/a
Procedure, shortened: as §3

What does the source list for `CCOC(=O)N(c1ccccc1CN1CCSCC1=O)S(=O)(=O)C(F)(F)F` [Compound I-18, 4-[2-(N-ethoxycarbonyl-N-trifluoromethanesulfonyl)aminobenzyl]-1,4-thiazinan-3-one]?
K: redroot pigweed, herbicidal effect ([1]; dose 6.3 g/a): 4 (mortality of at least 70% and less than 90%); M: posumbu knotweed, herbicidal effect ([2]; dose 6.3 g/a): 3 (mortality of at least 40% and less than 70%); L: common lambsquater, herbicidal effect ([3]; dose 6.3 g/a): 4 (mortality of at least 70% and less than 90%); A: barnyardgrass, herbicidal effect ([4]; dose 6.3 g/a): 5 (mortality of 90% or above (nearly complete death)); H: Italian ryegrass, herbicidal effect ([5]; dose 6.3 g/a): 4 (mortality of at least 70% and less than 90%); J: common ragweed, herbicidal effect ([6]; dose 6.3 g/a): 3 (mortality of at least 40% and less than 70%); D: large crabgrass, herbicidal effect ([7]; dose 6.3 g/a): 4 (mortality of at least 70% and less than 90%); G: water foxtail, herbicidal effect ([8]; dose 6.3 g/a): 5 (mortality of 90% or above (nearly complete death)); N: common chickweed, herbicidal effect ([9]; dose 6.3 g/a): 4 (mortality of at least 70% and less than 90%); I: velvetleaf, herbicidal effect ([10]; dose 6.3 g/a): 4 (mortality of at least 70% and less than 90%); O: beadstraw, herbicidal effect ([11]; dose 6.3 g/a): 4 (mortality of at least 70% and less than 90%); E: giant foxtail, herbicidal effect ([12]; dose 6.3 g/a): 4 (mortality of at least 70% and less than 90%); F: wild oat, herbicidal effect ([13]; dose 6.3 g/a): 3 (mortality of at least 40% and less than 70%); a: transplanted rice, effect on crop (evaluation scale 0-5) [14]: 0 (mortality of less than 5% (almost ineffective)); A: barnyardgrass, herbicidal effect (evaluation scale 0-5) [15]: 5 (mortality of 90% or above (nearly complete death)); B: bulrush, herbicidal effect (evaluation scale 0-5) [16]: 5 (mortality of 90% or above (nearly complete death)); C: ducksalad, herbicidal effect (evaluation scale 0-5) [17]: 5 (mortality of 90% or above (nearly complete death)); B: bulrush, herbicidal effect (evaluation scale 0-5) [18]: 5 (mortality of 90% or above (nearly complete death)); C: ducksalad, herbicidal effect (evaluation scale 0-5) [19]: 4 (mortality of at least 70% and less than 90%); K: redroot pigweed, herbicidal effect (evaluation scale 0-5) ([20]; dose 6.3 g/a): 4 (mortality of at least 70% and less than 90%); M: posumbu knotweed, herbicidal effect (evaluation scale 0-5) ([21]; dose 6.3 g/a): 3 (mortality of at least 40% and less than 70%); L: common lambsquater, herbicidal effect (evaluation scale 0-5) ([22]; dose 6.3 g/a): 5 (mortality of 90% or above (nearly complete death)); A: barnyardgrass, herbicidal effect (evaluation scale 0-5) ([23]; dose 6.3 g/a): 5 (mortality of 90% or above (nearly complete death)); H: Italian ryegrass, herbicidal effect (evaluation scale 0-5) ([24]; dose 6.3 g/a): 4 (mortality of at least 70% and less than 90%); J: common ragweed, herbicidal effect (evaluation scale 0-5) ([25]; dose 6.3 g/a): 4 (mortality of at least 70% and less than 90%); D: large crabgrass, herbicidal effect (evaluation scale 0-5) ([26]; dose 6.3 g/a): 4 (mortality of at least 70% and less than 90%); G: water foxtail, herbicidal effect (evaluation scale 0-5) ([27]; dose 6.3 g/a): 5 (mortality of 90% or above (nearly complete death)); N: common chickweed, herbicidal effect (evaluation scale 0-5) [28]: 4 (mortality of at least 70% and less than 90%); I: velvetleaf, herbicidal effect (evaluation scale 0-5) ([29]; dose 6.3 g/a): 1 (mortality of at least 5% and less than 20%); O: beadstraw, herbicidal effect (evaluation scale 0-5) ([30]; dose 6.3 g/a): 3 (mortality of at least 40% and less than 70%); E: giant foxtail, herbicidal effect (evaluation scale 0-5) ([31]; dose 6.3 g/a): 5 (mortality of 90% or above (nearly complete death)); F: wild oat, herbicidal effect (evaluation scale 0-5) ([32]; dose 6.3 g/a): 0 (mortality of less than 5% (almost ineffective))

Which results are given for `CC(C)COC(=O)N(c1ccccc1CN1COC(C(F)(F)F)CC1=O)S(=O)(=O)C(F)(F)F` (stereo not shown) [II-16]?
K: redroot pigweed, herbicidal effect ([1]; dose 3.2 g/a): 0 (mortality of less than 5% (almost ineffective)); M: posumbu knotweed, herbicidal effect ([2]; dose 3.2 g/a): 0 (mortality of less than 5% (almost ineffective)); L: common lambsquater, herbicidal effect ([3]; dose 3.2 g/a): 3 (mortality of at least 40% and less than 70%); A: barnyardgrass, herbicidal effect ([4]; dose 3.2 g/a): 0 (mortality of less than 5% (almost ineffective)); H: Italian ryegrass, herbicidal effect ([5]; dose 3.2 g/a): 0 (mortality of less than 5% (almost ineffective)); J: common ragweed, herbicidal effect ([6]; dose 3.2 g/a): 2 (mortality of at least 20% and less than 40%); D: large crabgrass, herbicidal effect ([7]; dose 3.2 g/a): 0 (mortality of less than 5% (almost ineffective)); G: water foxtail, herbicidal effect ([8]; dose 3.2 g/a): 5 (mortality of 90% or above (nearly complete death)); N: common chickweed, herbicidal effect ([9]; dose 3.2 g/a): 2 (mortality of at least 20% and less than 40%); I: velvetleaf, herbicidal effect ([10]; dose 3.2 g/a): 0 (mortality of less than 5% (almost ineffective)); O: beadstraw, herbicidal effect ([11]; dose 3.2 g/a): 0 (mortality of less than 5% (almost ineffective)); E: giant foxtail, herbicidal effect ([12]; dose 3.2 g/a): 0 (mortality of less than 5% (almost ineffective)); F: wild oat, herbicidal effect ([13]; dose 3.2 g/a): 0 (mortality of less than 5% (almost ineffective)); a: transplanted rice, effect on crop (evaluation scale 0-5) [14]: 0 (mortality of less than 5% (almost ineffective)); A: barnyardgrass, herbicidal effect (evaluation scale 0-5) [15]: 5 (mortality of 90% or above (nearly complete death)); B: bulrush, herbicidal effect (evaluation scale 0-5) [16]: 5 (mortality of 90% or above (nearly complete death)); C: ducksalad, herbicidal effect (evaluation scale 0-5) [17]: 5 (mortality of 90% or above (nearly complete death)); A: barnyardgrass, herbicidal effect (evaluation scale 0-5) [33]: 1 (mortality of at least 5% and less than 20%); B: bulrush, herbicidal effect (evaluation scale 0-5) [18]: 5 (mortality of 90% or above (nearly complete death)); C: ducksalad, herbicidal effect (evaluation scale 0-5) [19]: 4 (mortality of at least 70% and less than 90%); K: redroot pigweed, herbicidal effect (evaluation scale 0-5) ([20]; dose 3.2 g/a): 0 (mortality of less than 5% (almost ineffective)); M: posumbu knotweed, herbicidal effect (evaluation scale 0-5) ([21]; dose 3.2 g/a): 0 (mortality of less than 5% (almost ineffective)); L: common lambsquater, herbicidal effect (evaluation scale 0-5) ([22]; dose 3.2 g/a): 1 (mortality of at least 5% and less than 20%); A: barnyardgrass, herbicidal effect (evaluation scale 0-5) ([23]; dose 3.2 g/a): 0 (mortality of less than 5% (almost ineffective)); H: Italian ryegrass, herbicidal effect (evaluation scale 0-5) ([24]; dose 3.2 g/a): 0 (mortality of less than 5% (almost ineffective)); J: common ragweed, herbicidal effect (evaluation scale 0-5) ([25]; dose 3.2 g/a): 3 (mortality of at least 40% and less than 70%); D: large crabgrass, herbicidal effect (evaluation scale 0-5) ([26]; dose 3.2 g/a): 0 (mortality of less than 5% (almost ineffective)); G: water foxtail, herbicidal effect (evaluation scale 0-5) ([27]; dose 3.2 g/a): 5 (mortality of 90% or above (nearly complete death)); I: velvetleaf, herbicidal effect (evaluation scale 0-5) ([29]; dose 3.2 g/a): 0 (mortality of less than 5% (almost ineffective)); O: beadstraw, herbicidal effect (evaluation scale 0-5) ([30]; dose 3.2 g/a): 0 (mortality of less than 5% (almost ineffective)); E: giant foxtail, herbicidal effect (evaluation scale 0-5) ([31]; dose 3.2 g/a): 0 (mortality of less than 5% (almost ineffective)); F: wild oat, herbicidal effect (evaluation scale 0-5) ([32]; dose 3.2 g/a): 0 (mortality of less than 5% (almost ineffective))
